Test results: PubChem BioAssay (NCI)
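Where inhibition never reached the appropriate level, the endpoint shown equals the highest concentration tested. Otherwise, values were interpolated linearly from a five-concentration, 48-hour dose response in 96-well plates. Definition used: TGI = concentration required for complete inhibition of growth.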

Key:
Assay in all cases: growth of human tumour cells (NCI), 48 h
[1] = system: 786-0 renal
[2] = system: A549 NSCLC
[3] = system: ACHN renal
[4] = system: BT-549 breast
[5] = system: CAKI-1 renal
[6] = system: CCRF-CEM leukemia
[7] = system: COLO 205 colon
[8] = system: EKVX NSCLC
[9] = system: HCC-2998 colon
[10] = system: HCT-116 colon
[11] = system: HCT-15 colon
[12] = system: HOP-62 NSCLC
[13] = system: HS 578T breast
[14] = system: HT29 colon
[15] = system: K-562 leukemia
[16] = system: KM12 colon
[17] = system: M14 melanoma
[18] = system: MALME-3M melanoma
[19] = system: MCF7 breast
[20] = system: MDA-MB-435
[21] = system: MDA-N
[22] = system: MOLT-4 leukemia
[23] = system: NCI-H226 lung
[24] = system: NCI-H23 lung
[25] = system: NCI-H460 lung
[26] = system: NCI/ADR-RES ovarian
[27] = system: OVCAR-3 ovarian
[28] = system: OVCAR-4 ovarian
[29] = system: OVCAR-5 ovarian
[30] = system: OVCAR-8 ovarian
[31] = system: PC-3 prostate
[32] = system: RPMI-8226 leukemia
[33] = system: SF-268 CNS
[34] = system: SF-295 CNS
[35] = system: SF-539 CNS
[36] = system: SK-MEL-2 melanoma
[37] = system: SK-MEL-28 melanoma
[38] = system: SK-OV-3 ovarian
[39] = system: SN12C renal
[40] = system: SNB-19 CNS
[41] = system: SNB-75 CNS
[42] = system: SW-620 colon
[43] = system: T-47D breast
[44] = system: UACC-257 melanoma
[45] = system: UO-31 renal
[46] = system: DU-145 prostate
[47] = system: HL-60(TB) leukemia
[48] = system: HOP-92 NSCLC
[49] = system: IGROV1 ovarian
[50] = system: LOX IMVI melanoma
[51] = system: MDA-MB-231 breast
[52] = system: NCI-H522 lung
[53] = system: SR leukemia
[54] = system: TK-10 renal
[55] = system: U251 CNS
[56] = system: UACC-62 melanoma

For Cc1ccc(N/C(=C(/C(Cl)=C(Cl)Cl)[N+](=O)[O-])n2nnc3ccccc32)cc1, the TGI [1] was 38.4 µM, the TGI [2] was 37.3 µM and the TGI [3] was 44.9 µM. For the same compound, the TGI [4] was 37.6 µM, the TGI [5] was 31.6 µM and the TGI [6] was 64.5 µM. It also gave a TGI [7] of 28.4 µM, a TGI [8] of 39.5 µM and a TGI [9] of 35.1 µM. For the same compound, the TGI [10] was 75.5 µM, the TGI [11] was 52.3 µM and the TGI [12] was 39.7 µM. It also gave a TGI [13] of 47.1 µM, a TGI [14] of 42 µM and a TGI [15] of over 100 µM. For the same compound, the TGI [16] was 47.7 µM, the TGI [17] was 31.7 µM and the TGI [18] was 29.9 µM. The TGI [19] was over 100 µM, the TGI [20] was 40.2 µM and the TGI [21] was 38.1 µM. It also gave a TGI [22] of over 100 µM, a TGI [23] of 35.3 µM and a TGI [24] of 43.8 µM. The TGI [25] was 34.4 µM, the TGI [26] was 69.5 µM and the TGI [27] was 34.3 µM. It also gave a TGI [28] of 39.6 µM, a TGI [29] of 41 µM and a TGI [30] of 38 µM. The TGI [31] was 33.8 µM, the TGI [32] was 64.8 µM and the TGI [33] was 36.8 µM. The TGI [34] was 36.7 µM, the TGI [35] was 31.3 µM and the TGI [36] was 35.5 µM. For the same compound, the TGI [37] was 33.8 µM, the TGI [38] was 35.8 µM and the TGI [39] was 43.7 µM. For the same compound, the TGI [40] was 33.9 µM, the TGI [41] was 35.4 µM and the TGI [42] was 43.5 µM. It also gave a TGI [43] of 52.5 µM, a TGI [44] of 62.7 µM and a TGI [45] of 30.2 µM.
Work on O=C1c2ccccc2-c2nc(-c3cccs3)cc3c2c1nc1ccccc13 yielded a TGI [1] of over 100 µM, a TGI [2] of 63.5 µM and a TGI [3] of over 100 µM. For the same compound, the TGI [4] was over 100 µM, the TGI [5] was over 100 µM and the TGI [6] was over 100 µM. For the same compound, the TGI [7] was 37.5 µM, the TGI [46] was 31 µM and the TGI [8] was over 100 µM. It also gave a TGI [9] of 68 µM, a TGI [10] of 42.2 µM and a TGI [11] of 57.1 µM. It also gave a TGI [47] of 26.5 µM, a TGI [12] of 77.6 µM and a TGI [48] of over 100 µM. The TGI [13] was 90 µM, the TGI [14] was 62.6 µM and the TGI [49] was 92.5 µM. It also gave a TGI [15] of over 100 µM, a TGI [16] of over 100 µM and a TGI [50] of 35.9 µM. For the same compound, the TGI [17] was 18.3 µM, the TGI [18] was 23.1 µM and the TGI [19] was 29.2 µM. The TGI [51] was over 100 µM, the TGI [20] was 4.51 µM and the TGI [21] was 20.4 µM. For the same compound, the TGI [22] was over 100 µM, the TGI [23] was over 100 µM and the TGI [24] was 38.8 µM. For the same compound, the TGI [25] was over 100 µM, the TGI [52] was 83.5 µM and the TGI [26] was over 100 µM. For the same compound, the TGI [27] was 9.39 µM, the TGI [28] was over 100 µM and the TGI [29] was over 100 µM. It also gave a TGI [30] of over 100 µM, a TGI [31] of over 100 µM and a TGI [32] of over 100 µM. The TGI [33] was 56.8 µM, the TGI [34] was over 100 µM and the TGI [35] was over 100 µM. The TGI [36] was 32 µM, the TGI [37] was 36.8 µM and the TGI [38] was over 100 µM. For the same compound, the TGI [39] was over 100 µM, the TGI [40] was over 100 µM and the TGI [41] was over 100 µM. It also gave a TGI [53] of 34.5 µM, a TGI [42] of 31 µM and a TGI [54] of over 100 µM. For the same compound, the TGI [55] was over 100 µM, the TGI [44] was 37.3 µM and the TGI [56] was 19.3 µM. For the same compound, the TGI [45] was over 100 µM.
